From ChEMBL document CHEMBL3217615, “Novel 3,5-bis(arylidiene)-4-piperidone based monocarbonyl analogs of curcumin: anticancer activity evaluation and mode of action study” (2014)

Tests used:
Format in all cases: functional
KM12 [1] = assay: Growth inhibition of human KM12 cells assessed as cell growth at 10^-8 M after 48 hrs by sulforhodamine B assay; conditions: KM12, 48 h; for growth at 0.01 µM: read-out: Activity; for TGI: read-out: pTGI (converted)
RPMI-8226 = assay: Growth inhibition of human RPMI8226 cells assessed as cell growth at 10^-4 M after 48 hrs by sulforhodamine B assay; conditions: RPMI-8226, 48 h, read-out: Activity
MDA-MB-435 [2] = assay: Growth inhibition of human MDA-MB-435 cells assessed as cell growth at 10^-6 M after 48 hrs by sulforhodamine B assay; conditions: MDA-MB-435, 48 h, read-out: Activity
[3] = Growth inhibition of human BT549 cells after 48 hrs by sulforhodamine B assay; conditions: BT-549, 48 h
786-0 [4] = assay: Growth inhibition of human 786-0 cells after 48 hrs by sulforhodamine B assay; conditions: 786-0, 48 h; for CC50: read-out: LC50 (the source's name)
DU-145 [5] = assay: Growth inhibition of human DU145 cells assessed as cell growth at 10^-4 M after 48 hrs by sulforhodamine B assay; conditions: DU-145, 48 h, read-out: Activity
SNB-19 = assay: Growth inhibition of human SNB19 cells assessed as cell growth at 10^-6 M after 48 hrs by sulforhodamine B assay; conditions: SNB-19, 48 h, read-out: Activity
U-251 = assay: Growth inhibition of human U251 cells after 48 hrs by sulforhodamine B assay; conditions: U-251, 48 h; for CC50: read-out: LC50 (the source's name)
[6] = Growth inhibition of human MOLT4 cells after 48 hrs by sulforhodamine B assay; conditions: MOLT-4, 48 h; for CC50: read-out: LC50 (the source's name)
PC-3 [7] = assay: Growth inhibition of human PC3 cells assessed as cell growth at 10^-7 M after 48 hrs by sulforhodamine B assay; conditions: PC-3, 48 h, read-out: Activity
NCI-H322M = assay: Growth inhibition of human NCI-H322M cells assessed as cell growth at 10^-7 M after 48 hrs by sulforhodamine B assay; conditions: read-out: Activity
NCI-H460 = assay: Growth inhibition of human NCI-H460 cells assessed as cell growth at 10^-7 M after 48 hrs by sulforhodamine B assay; conditions: NCI-H460, 48 h, read-out: Activity
PC-3 [8] = assay: Growth inhibition of human PC3 cells after 48 hrs by sulforhodamine B assay; conditions: PC-3, 48 h; for CC50: read-out: LC50 (the source's name)
MCF7 = assay: Growth inhibition of human MCF7 cells after 48 hrs by sulforhodamine B assay; conditions: MCF7, 48 h; for CC50: read-out: LC50 (the source's name)
NCI-H23 [9] = assay: Growth inhibition of human NCI-H23 cells assessed as cell growth at 10^-6 M after 48 hrs by sulforhodamine B assay; conditions: NCI-H23, 48 h, read-out: Activity
SK-MEL-5 = assay: Growth inhibition of human SK-MEL-5 cells after 48 hrs by sulforhodamine B assay; conditions: SK-MEL-5, 48 h; for CC50: read-out: LC50 (the source's name)
Malme-3M [10] = assay: Growth inhibition of human MALME-3M cells after 48 hrs by sulforhodamine B assay; conditions: for CC50: read-out: LC50 (the source's name)
[11] = Growth inhibition of human RXF393 cells assessed as cell growth at 10^-4 M after 48 hrs by sulforhodamine B assay; conditions: RXF 393, 48 h, read-out: Activity
DU-145 [12] = assay: Growth inhibition of human DU145 cells assessed as cell growth at 10^-7 M after 48 hrs by sulforhodamine B assay; conditions: DU-145, 48 h, read-out: Activity
[13] = Growth inhibition of human UO31 cells assessed as cell growth at 10^-7 M after 48 hrs by sulforhodamine B assay; conditions: UO-31, 48 h, read-out: Activity
[14] = Growth inhibition of human OVCAR5 cells assessed as cell growth at 10^-7 M after 48 hrs by sulforhodamine B assay; conditions: OVCAR-5, 48 h, read-out: Activity
KM12 [15] = assay: Growth inhibition of human KM12 cells after 48 hrs by sulforhodamine B assay; conditions: KM12, 48 h; for CC50: read-out: LC50 (the source's name)
SK-OV-3 = assay: Growth inhibition of human SKOV3 cells assessed as cell growth at 10^-6 M after 48 hrs by sulforhodamine B assay; conditions: SK-OV-3, 48 h, read-out: Activity
Malme-3M [16] = assay: Growth inhibition of human MALME-3M cells assessed as cell growth at 10^-4 M after 48 hrs by sulforhodamine B assay; conditions: read-out: Activity
MDA-MB-435 [17] = assay: Growth inhibition of human MDA-MB-435 cells assessed as cell growth at 10^-4 M after 48 hrs by sulforhodamine B assay; conditions: MDA-MB-435, 48 h, read-out: Activity
786-0 [18] = assay: Growth inhibition of human 786-0 cells assessed as cell growth at 10^-7 M after 48 hrs by sulforhodamine B assay; conditions: 786-0, 48 h, read-out: Activity
[19] = Growth inhibition of human RXF393 cells after 48 hrs by sulforhodamine B assay; conditions: RXF 393, 48 h; for CC50: read-out: LC50 (the source's name)
COLO 205 = assay: Growth inhibition of human COLO205 cells assessed as cell growth at 10^-6 M after 48 hrs by sulforhodamine B assay; conditions: COLO 205, 48 h, read-out: Activity
IGROV-1 = assay: Growth inhibition of human IGROV1 cells assessed as cell growth at 10^-8 M after 48 hrs by sulforhodamine B assay; conditions: IGROV-1, 48 h; for growth at 0.01 µM: read-out: Activity; for TGI: read-out: pTGI (converted)
[20] = Growth inhibition of human UACC257 cells assessed as cell growth at 10^-7 M after 48 hrs by sulforhodamine B assay; conditions: UACC-257, 48 h, read-out: Activity
NCI-H23 [21] = assay: Growth inhibition of human NCI-H23 cells assessed as cell growth at 10^-4 M after 48 hrs by sulforhodamine B assay; conditions: NCI-H23, 48 h, read-out: Activity
[22] = Growth inhibition of human UO31 cells assessed as cell growth at 10^-6 M after 48 hrs by sulforhodamine B assay; conditions: UO-31, 48 h, read-out: Activity
[23] = Growth inhibition of human HCC2998 cells assessed as cell growth at 10^-4 M after 48 hrs by sulforhodamine B assay; conditions: HCC 2998, 48 h, read-out: Activity
[24] = Growth inhibition of human HCT15 cells assessed as cell growth at 10^-8 M after 48 hrs by sulforhodamine B assay; conditions: HCT-15, 48 h; for growth at 0.01 µM: read-out: Activity; for TGI: read-out: pTGI (converted)
K562 = assay: Growth inhibition of human K562 cells after 48 hrs by sulforhodamine B assay; conditions: K562, 48 h; for CC50: read-out: LC50 (the source's name)

`Cc1ccc(S(=O)(=O)N2C/C(=C\c3cc(F)cc(F)c3)C(=O)/C(=C/c3cc(F)cc(F)c3)C2)cc1` gave a GI50 (KM12 [1]) of 324 nM, an LC50 (KM12 [1]) of 4070 nM and a growth at 0.01 µM (KM12 [1]) of 106%. For the same compound, the TGI (KM12 [1]) was 1000 nM, the growth at 100 µM (RPMI-8226) was -50% and the growth at 1 µM (MDA-MB-435 [2]) was -18%. For the same compound, the GI50 [3] was 340 nM, the LC50 [3] was 3520 nM and the TGI [3] was 931 nM. The GI50 (786-0 [4]) was 587 nM, the TGI (786-0 [4]) was 1910 nM and the CC50 (786-0 [4]) was 4950 nM. It also gave a growth at 100 µM (DU-145 [5]) of -87%, a growth at 1 µM (SNB-19) of -12% and a GI50 (U-251) of 188 nM. The TGI (U-251) was 530 nM, the CC50 (U-251) was 2020 nM and the GI50 [6] was 299 nM. For the same compound, the TGI [6] was 2110 nM, the CC50 [6] was over 100000 nM and the growth at 0.1 µM (PC-3 [7]) was 89%. For the same compound, the growth at 0.1 µM (NCI-H322M) was 103%, the growth at 0.1 µM (NCI-H460) was 104% and the GI50 (PC-3 [8]) was 248 nM. It also gave a TGI (PC-3 [8]) of 803 nM, a CC50 (PC-3 [8]) of 9280 nM and a GI50 (MCF7) of 175 nM. The TGI (MCF7) was 1450 nM, the CC50 (MCF7) was 6880 nM and the growth at 1 µM (NCI-H23 [9]) was 77%. The GI50 (SK-MEL-5) was 286 nM, the TGI (SK-MEL-5) was 1080 nM and the CC50 (SK-MEL-5) was 3600 nM. The GI50 (Malme-3M [10]) was 274 nM, the TGI (Malme-3M [10]) was 742 nM and the CC50 (Malme-3M [10]) was 3810 nM. For the same compound, the growth at 100 µM [11] was -95%, the growth at 0.1 µM (DU-145 [12]) was 111% and the growth at 0.1 µM [13] was 94%. The growth at 0.1 µM [14] was 93%, the GI50 (KM12 [15]) was 327 nM and the TGI (KM12 [15]) was 1000 nM. It also gave a CC50 (KM12 [15]) of 4040 nM, a growth at 1 µM (SK-OV-3) of 77% and a growth at 100 µM (Malme-3M [16]) of -78%. It also gave a growth at 100 µM (MDA-MB-435 [17]) of -83%, a growth at 0.1 µM (786-0 [18]) of 104% and a GI50 [19] of 723 nM. It also gave a TGI [19] of 2140 nM, a CC50 [19] of 5130 nM and a growth at 1 µM (COLO 205) of 35%. The GI50 (IGROV-1) was 437 nM, the LC50 (IGROV-1) was 5130 nM and the growth at 0.01 µM (IGROV-1) was 106%. The TGI (IGROV-1) was 1550 nM, the growth at 0.1 µM [20] was 87% and the growth at 100 µM (NCI-H23 [21]) was -72%. It also gave a growth at 1 µM [22] of 55%, a growth at 100 µM [23] of -95% and a GI50 [24] of 251 nM. The LC50 [24] was 30900 nM, the growth at 0.01 µM [24] was 91% and the TGI [24] was 1290 nM. It also gave a GI50 (K562) of 77.2 nM, a TGI (K562) of 1370 nM and a CC50 (K562) of over 100000 nM.
For `O=C1/C(=C/c2ccc(Cl)cc2Cl)CN(S(=O)(=O)c2ccccc2)C/C1=C\c1ccc(Cl)cc1Cl`, the GI50 (KM12 [1]) was 257 nM, the LC50 (KM12 [1]) was 25700 nM and the growth at 0.01 µM (KM12 [1]) was 100%. For the same compound, the TGI (KM12 [1]) was 603 nM, the growth at 100 µM (RPMI-8226) was -35% and the growth at 1 µM (MDA-MB-435 [2]) was 50%. The GI50 [3] was 987 nM, the LC50 [3] was over 100000 nM and the TGI [3] was 4210 nM. The GI50 (786-0 [4]) was 241 nM, the TGI (786-0 [4]) was 544 nM and the CC50 (786-0 [4]) was 1710 nM. The growth at 100 µM (DU-145 [5]) was -10%, the growth at 1 µM (SNB-19) was 10% and the GI50 (U-251) was 173 nM. For the same compound, the TGI (U-251) was 373 nM, the CC50 (U-251) was 805 nM and the GI50 [6] was 594 nM. It also gave a TGI [6] of 9050 nM, a CC50 [6] of over 100000 nM and a growth at 0.1 µM (PC-3 [7]) of 93%. For the same compound, the growth at 0.1 µM (NCI-H322M) was 123%, the growth at 0.1 µM (NCI-H460) was 98% and the GI50 (PC-3 [8]) was 291 nM. The TGI (PC-3 [8]) was 1030 nM, the CC50 (PC-3 [8]) was over 100000 nM and the GI50 (MCF7) was 305 nM. For the same compound, the TGI (MCF7) was 100000 nM, the CC50 (MCF7) was over 100000 nM and the growth at 1 µM (NCI-H23 [9]) was 18%. The TGI (SK-MEL-5) was over 100000 nM, the CC50 (SK-MEL-5) was over 100000 nM and the GI50 (Malme-3M [10]) was 3210 nM. For the same compound, the CC50 (Malme-3M [10]) was over 100000 nM, the growth at 100 µM [11] was -88% and the growth at 0.1 µM (DU-145 [12]) was 110%. It also gave a growth at 0.1 µM [13] of 93%, a growth at 0.1 µM [14] of 94% and a GI50 (KM12 [15]) of 256 nM. The TGI (KM12 [15]) was 602 nM, the CC50 (KM12 [15]) was 25700 nM and the growth at 1 µM (SK-OV-3) was 108%. The growth at 100 µM (Malme-3M [16]) was 22%, the growth at 100 µM (MDA-MB-435 [17]) was -9% and the growth at 0.1 µM (786-0 [18]) was 104%. It also gave a GI50 [19] of 1060 nM, a TGI [19] of 2420 nM and a CC50 [19] of 5540 nM. The growth at 1 µM (COLO 205) was 16%, the GI50 (IGROV-1) was 316 nM and the LC50 (IGROV-1) was over 100000 nM. For the same compound, the growth at 0.01 µM (IGROV-1) was 116%, the TGI (IGROV-1) was 646 nM and the growth at 0.1 µM [20] was 90%. The growth at 100 µM (NCI-H23 [21]) was -28%, the growth at 1 µM [22] was -22% and the growth at 100 µM [23] was -66%. The GI50 [24] was 245 nM, the LC50 [24] was over 100000 nM and the growth at 0.01 µM [24] was 95%. It also gave a TGI [24] of 759 nM, a GI50 (K562) of 346 nM and a TGI (K562) of over 100000 nM. The CC50 (K562) was over 100000 nM.
